Where two headings read alike, the source gives them in different places.
Key:
[1] = DPPH radical scavenging assay; assay type: biochemical; settings: for IC50: DPPH 0.05 mM in methanol, incubated 20 and 60 min, absorbance at 517 nm, mean ± s.d. of three measurements, read-out: IC50 for inactivation of DPPH free radical; for stoichiometric factor (SF): SF=[DPPH]/(2×IC50), good antioxidant if SF ≥ 2
Procedure: The antioxidant screening of all PheNAHs was performed using the 2,2-diphenyl-1-picrylhydrazyl (DPPH) method. The solution of DPPH radical in methanol (0.05 mM, 1 ml) was mixed with the tested compound (20 µl of different concentrations in dimethyl sulfoxide (DMSO) and 980 µl of methanol). The reaction mixture was incubated in the dark at room temperature for 20 and 60 min after which the absorbance of the sample was measured spectrophotometrically at 517 nm. All measurements were performed in triplicate. Methanol was used as a control solution, whereas quercetin and nordihydroguaiaretic acid (NDGA) were used as reference compounds. […] IC50 is defined as the minimal concentration of tested compound required for reaching 50% of a maximum scavenging capacity. The results were presented as mean values ± standard deviation (s.d.) of three independent measurements. The stoichiometric factor (SF) was calculated for all compounds using the equation [45, 46]:1 SF=[DPPH]/(2×IC50)

MRC-5 = experiment: MTT cytotoxicity assay on MRC-5 cells; assay type: cell-based; settings: Homo sapiens, MRC5, MRC-5 cell line, read-out: Growth inhibitory effects IC50
Procedure: (§1) In this in vitro study, we investigated the influence of PheNAHs on two model systems: human colorectal carcinoma HCT-116 and human healthy fibroblast cell line MRC-5. Both cell lines of low passages were purchased from the European collection of authenticated cell cultures (ECACC) and were cultivated in Dulbecco's Modified Eagle Medium (DMEM) (Sigma, D5796) cell culture medium supplemented with 10% foetal bovine serum (Sigma, F4135-500 ML) and 1% penicillin/streptomycin (Sigma, P4333-100 ML) in 75 cm^2 culture flasks. The cells were maintained according to the standardized procedure in the incubator with humidified atmosphere supplemented with 5% CO2 at a physiological temperature of 37°C, and after a few passages and a confluence of about 80%, the cells were used in all in vitro experiments (Laboratory for Bioengineering protocol CB-003).
(§2) The ability of synthesized compounds to inhibit the growth of two different cell lines was estimated by a standardized 3-(4,5-dimethylthiazol-2-yl)-2,5-diphenyltetrazolium bromide (MTT) assay (Laboratory for Bioengineering protocol CB-005). The approximative number of 10 000 cells per well (in 96-well microplates) were seeded and kept in the incubator for 24 h to enable cell adhesion. After the incubation period, the cells were treated with investigated compounds in the concentration range from 0,1 to 500 µM dissolved in DMEM. Cytotoxic effect was evaluated 24 and 72 h from treatment by following the number of survived cells, thus the cell viability. MTT assay is based on spectrophotometric measurement of reduction rate of 3-(4,5-dimethylthiazol-2-yl)-2,5-diphenyltetrazolium bromide (MTT, Acros Organics, 158990010) to purple formazan crystals subsequently dissolved in DMSO (Fisher Chemical, D/4121/PB15) on a microplate reader (Rayto 2100C) at 550 nm. The percentage of the survived (viable) cells was estimated by dividing the absorbance of the treatment with the absorbance of the control (non-treated) cells and multiplied by 100 [47]. As positive controls, Leucovorin and Irinotecan were selected as compounds used in colon cancer treatment.
(§3) Biological activity was the result of two individual experiments, performed in triplicate for each dose. Statistical analyses were determined using the one-way analysis of variance (ANOVA) test for multiple comparisons, SPSS (Chicago, IL) statistical software package (SPSS for Windows, v. 17, 2008). The IC50 values were calculated from the dose curves by a computer program (CalcuSyn). IC50 values represent the half-maximal inhibitory concentration of tested compounds to measure the influence in inhibition of cell growth for 50%. […] At the beginning of the process of selecting the anti-cancer drug candidate, it is necessary to make a rough preselection between the tested substances. In vitro analysis on cancer and healthy cell lines is quantified in different ways, selectivity also. The selectivity index (SI) of tested drugs usually refers to the simple ratio of IC50 values determined for cancer and healthy cells. Also, the SI can be used for the expression of many other examples, such as SI between antibacterial and antiviral effect, discrimination of the drugs effect between many cancer cell lines, etc. In our experimentation, the values greater than ‘1’ indicate selectivity of the tested substance toward cancer cell line.

HCT-116 = experiment: MTT cytotoxicity assay on HCT-116 cells; assay type: cell-based, human; settings: for IC50: Homo sapiens, HCT-116 cell line, read-out: Growth inhibitory effects IC50; for selectivity index (SI): ratio of IC50 values of MRC-5 and HCT-116, values greater than 1 indicate selectivity toward cancer cell line; for cytotoxic effect in words (from IC50 values): MTT
Procedure: as §1, §2, §3

| SMILES | IC50 [1] | IC50 (MRC-5; 24 h exposure) | IC50 (MRC-5; 72 h exposure) | IC50 (HCT-116; 24 h exposure) | IC50 (HCT-116; 72 h exposure) | selectivity index (SI) (HCT-116; after 72 h exposure) | stoichiometric factor (SF) [1] | selectivity index (SI) (HCT-116; after 24 h exposure) | cytotoxic effect in words (from IC50 values) (HCT-116; 72 h after treatment) | cytotoxic effect in words (from IC50 values) (HCT-116; 24 and 72 h exposure, 0,1 to 500 µM) |
| --- | --- | --- | --- | --- | --- | --- | --- | --- | --- | --- |
| O=C(N/N=C/c1ccccc1)c1ccc(O)cc1 [3a] | > 100 µM | > 500 µM | > 500 µM | > 500 µM | > 500 µM | – | – | – | – | – |
| O=C(N/N=C/c1ccccc1O)c1ccc(O)cc1 [3b] | > 100 µM | > 500 µM | > 500 µM | > 500 µM | 101 µM | >4.94 | – | – | – | – |
| O=C(N/N=C/c1ccc(O)cc1)c1ccc(O)cc1 [3c] | > 100 µM | > 500 µM | > 500 µM | > 500 µM | > 500 µM | – | – | – | – | – |
| COc1cccc(/C=N/NC(=O)c2ccc(O)cc2)c1O [3d] | > 100 µM | > 500 µM | 213 µM | > 500 µM | 94.1 µM | 2.3 | – | – | – | – |
| COc1cc(/C=N/NC(=O)c2ccc(O)cc2)ccc1O [3e] | 28.4 ± 0.2 µM | > 500 µM | > 500 µM | > 500 µM | > 500 µM | – | 0.4 | – | – | – |
| COc1cc(/C=N/NC(=O)c2ccc(O)cc2)cc(OC)c1O [3f] | 16.6 ± 0.2 µM | > 500 µM | > 500 µM | > 500 µM | > 500 µM | – | 0.8 | – | – | – |
| O=C(N/N=C/c1ccc(O)cc1O)c1ccc(O)cc1 [3g] | > 100 µM | > 500 µM | 440 µM | > 500 µM | 130 µM | – | – | – | – | – |
| O=C(N/N=C/c1ccc(O)c(O)c1)c1ccc(O)cc1 [3h] | 2.5 ± 0.1 µM | > 500 µM | > 500 µM | > 500 µM | 107 µM | – | 5 | – | – | – |
| CC(Cc1ccc(O)c(O)c1)C(C)Cc1ccc(O)c(O)c1 (centres unmarked) [NDGA, nordihydroguaiaretic acid, reference compound] | 1.7 ± 0.1 µM | – | – | – | – | – | 7.4 | – | – | – |
| O=c1c(O)c(-c2ccc(O)c(O)c2)oc2cc(O)cc(O)c12 [Quercetin, quercetin, reference compound] | 1.9 ± 0.1 µM | – | – | – | – | – | 6.6 | – | – | – |
| CCc1c2c(nc3ccc(OC(=O)N4CCC(N5CCCCC5)CC4)cc13)-c1cc3c(c(=O)n1C2)COC(=O)[C@]3(O)CC [irinotecan, Irinotecan, reference compound] | – | > 500 µM | 35.2 µM | > 500 µM | 101 µM | 0.35 | – | – | moderate | – |
| Nc1nc2c(c(=O)[nH]1)N(C=O)C(CNc1ccc(C(=O)N[C@@H](CCC(=O)O)C(=O)O)cc1)CN2 (some centres unmarked) [leucovorin, Leucovorin, reference compound] | – | > 500 µM | 180 µM | > 500 µM | > 500 µM | <0.36 | – | – | – | no effect |

Further lines, with some results ahead:

| IC50 [1] | SMILES | IC50 (MRC-5; 24 h exposure) | IC50 (MRC-5; 72 h exposure) | IC50 (HCT-116; 24 h exposure) | IC50 (HCT-116; 72 h exposure) | selectivity index (SI) (HCT-116; after 72 h exposure) | stoichiometric factor (SF) [1] | selectivity index (SI) (HCT-116; after 24 h exposure) | cytotoxic effect in words (from IC50 values) (HCT-116; 72 h after treatment) | cytotoxic effect in words (from IC50 values) (HCT-116; 24 and 72 h exposure, 0,1 to 500 µM) |
| --- | --- | --- | --- | --- | --- | --- | --- | --- | --- | --- |
| > 100 µM | COc1cc(C(=O)N/N=C/c2ccccc2)ccc1O [4a] | > 500 µM | > 500 µM | > 500 µM | > 500 µM | – | – | – | – | – |
| > 100 µM | COc1cc(C(=O)N/N=C/c2ccccc2O)ccc1O [4b] | > 500 µM | 290 µM | 250 µM | 91.4 µM | 3.17 | – | >2.00 | – | – |
| > 100 µM | COc1cc(C(=O)N/N=C/c2ccc(O)cc2)ccc1O [4c] | > 500 µM | > 500 µM | > 500 µM | > 500 µM | – | – | – | – | – |
| > 100 µM | COc1cc(C(=O)N/N=C/c2cccc(OC)c2O)ccc1O [4d] | > 500 µM | 128 µM | > 500 µM | 202 µM | – | – | – | – | – |

From paper PMC9174720, “Evaluation of antioxidant and cytotoxic properties of phenolic N-acylhydrazones: structure–activity relationship” (Royal Society Open Science, 2022)
